Columns and labels:
[1] = system: 6 Hz (32 mA) psychomotor seizures; assay: 6 Hz psychomotor seizure test, 32 mA (incl. TPE determination); format: in vivo, mice; conditions: for # protected/# tested: 0.5 h
Experimental: Test compounds were administered using an optimal fluid volume to body fluid ratio. Test compounds were administered to mice in a volume of 0.01 mL/g of body weight (White H. S., et al., General Principles: Experimental selection, quantification, and evaluation of antiepileptic drugs, in Antiepileptic Drugs, Fourth Edition, […], and B. S. Meldrum, Editors. 1995, Raven Press, Ltd.: New York, pp. 99-110). For subcutaneous (s.c.) administration, the test compounds were administered into a loose fold of skin along the back of the animal except compound 6-b, which was administered orally (p.o). […] The animals were maintained on an adequate diet (Prolab RMH 3000) and allowed free access to food and water, except during the short time they were removed from their cage for testing. Animals newly received in the laboratory were allowed sufficient time to correct for possible food and water restriction incurred during transit before being employed in testing. All mice were housed in plastic cages in specially constructed rooms with controlled humidity, exchange of air and controlled lighting (12 hours on-12 hours off). The animals were housed, fed, and handled in a manner consistent with the recommendations in the National Council Publication, “Guide for the Care and Use of Laboratory Animals”. In the determination of an ED50 or TD50 for each test compound, the first dose administered is usually the same dose as that used in a successful TPE determination. […] Third and fourth doses were selected to produce an evenly spaced dose response line. […] TPE was determined using the 6 Hz (32 mA) assay. […] The 6 Hz seizure test is used as a model of pharmacoresistant limbic seizures. […] Focal seizures were induced in mice via corneal stimulation (6 Hz, 0.2 msec rectangular pulse, 3 sec duration; Barton et al. 2001). Mice were tested at either 32 mA or 44 mA. […] The seizures that arise from corneal stimulation in this assay are characterized by a minimal clonic phase followed by stereotyped automatistic behaviors including stun, forelimb clonus, twitching of the vibrissae, and Straub-tail. Animals not displaying these behaviors were considered protected.

[2] = system: 6 Hz (44 mA) psychomotor seizures; assay: 6 Hz psychomotor seizure test, 44 mA (alone, combination with LEV, isobolographic study); format: in vivo, mice
Experimental: Test compounds were administered using an optimal fluid volume to body fluid ratio. Test compounds were administered to mice in a volume of 0.01 mL/g of body weight (White H. S., et al., General Principles: Experimental selection, quantification, and evaluation of antiepileptic drugs, in Antiepileptic Drugs, Fourth Edition, […], and B. S. Meldrum, Editors. 1995, Raven Press, Ltd.: New York, pp. 99-110). For subcutaneous (s.c.) administration, the test compounds were administered into a loose fold of skin along the back of the animal except compound 6-b, which was administered orally (p.o). […] The animals were maintained on an adequate diet (Prolab RMH 3000) and allowed free access to food and water, except during the short time they were removed from their cage for testing. Animals newly received in the laboratory were allowed sufficient time to correct for possible food and water restriction incurred during transit before being employed in testing. All mice were housed in plastic cages in specially constructed rooms with controlled humidity, exchange of air and controlled lighting (12 hours on-12 hours off). The animals were housed, fed, and handled in a manner consistent with the recommendations in the National Council Publication, “Guide for the Care and Use of Laboratory Animals”. In the determination of an ED50 or TD50 for each test compound, the first dose administered is usually the same dose as that used in a successful TPE determination. […] Third and fourth doses were selected to produce an evenly spaced dose response line. […] The 6 Hz seizure test is used as a model of pharmacoresistant limbic seizures. […] Focal seizures were induced in mice via corneal stimulation (6 Hz, 0.2 msec rectangular pulse, 3 sec duration; Barton et al. 2001). Mice were tested at either 32 mA or 44 mA. […] The seizures that arise from corneal stimulation in this assay are characterized by a minimal clonic phase followed by stereotyped automatistic behaviors including stun, forelimb clonus, twitching of the vibrissae, and Straub-tail. Animals not displaying these behaviors were considered protected. […] In addition to recording the efficacy and toxicity data for these compounds alone or in combination, both plasma and brain samples were collected from each of the groups for pharmacokinetic/pharmacokinetic analysis. No pharmacokinetic interaction was observed based on compound levels in the plasma and brain samples (data not shown). Isobolographic studies were conducted for the combined administration of Co. […] Studies were conducted according to previously described methods (Madsen et al. 2011). Initial ED50 values were determined for both Co. […] Co. […] Doses used were proportional to calculated ED50 values. […] Experimental treatment doses (see Table 4) were based on theoretical values and adjusted according to observed effects. Experimentally determined ED50 (+SEM) values for each fixed dose-ratio combination were compared to the theoretical values (t-test) for statistical purposes. […] Subsequently, the experimental combined doses were determined for the same paradigms in the 6 Hz seizure test (Table 4 below).

[3] = Minimal motor impairment (rotarod); format: in vivo, mice; conditions: for # rotarod motor impairment/# tested: 0.5 h
Experimental: Acute MMI was assessed by a combination of direct observations of the animal for overt symptoms of the animal's neurological or muscular function. In mice, the rotarod procedure was used to disclose minimal muscular or neurological impairment. When a mouse is placed on a rod that rotates at a speed of 6 rpm, the animal can maintain its equilibrium for long periods of time. The animal was considered toxic if it fell off this rotating rod three times during a 1 min period.
In the determination of an ED50 or TD50 for each test compound, the first dose administered is usually the same dose as that used in a successful TPE determination.
If the initial dose employed was effective or toxic in more than 50% of animals, the next dose would be one-half that of the initial dose; if the initial dose was effective or toxic in less than 50% of animals, the following dose would be twice that of the initial dose. Third and fourth doses were selected to produce an evenly spaced dose response line. There should be a minimum of 4 points either including or lying between 0 and 100%.

[4] = system: corneal kindled seizures; assay: Mouse corneal kindling model; format: in vivo, mice; conditions: 100 mg/kg s.c.; Racine score 0-5
Experimental: After the mice reached a stable kindled state, the test compound or vehicle was administered and, at the previously determined TPE, each animal was given the electrical stimulus indicated above. […] One dose of LEV and two doses of Co.

[5] = target: mGlu1a (Homo sapiens, UniProt Q13255); conditions: cited from earlier work
[6] = target: mGlu5a (Homo sapiens, UniProt P41594); conditions: cited from earlier work
Sequence of mGlu5a (P41594 21-1180 isoform P41594-2): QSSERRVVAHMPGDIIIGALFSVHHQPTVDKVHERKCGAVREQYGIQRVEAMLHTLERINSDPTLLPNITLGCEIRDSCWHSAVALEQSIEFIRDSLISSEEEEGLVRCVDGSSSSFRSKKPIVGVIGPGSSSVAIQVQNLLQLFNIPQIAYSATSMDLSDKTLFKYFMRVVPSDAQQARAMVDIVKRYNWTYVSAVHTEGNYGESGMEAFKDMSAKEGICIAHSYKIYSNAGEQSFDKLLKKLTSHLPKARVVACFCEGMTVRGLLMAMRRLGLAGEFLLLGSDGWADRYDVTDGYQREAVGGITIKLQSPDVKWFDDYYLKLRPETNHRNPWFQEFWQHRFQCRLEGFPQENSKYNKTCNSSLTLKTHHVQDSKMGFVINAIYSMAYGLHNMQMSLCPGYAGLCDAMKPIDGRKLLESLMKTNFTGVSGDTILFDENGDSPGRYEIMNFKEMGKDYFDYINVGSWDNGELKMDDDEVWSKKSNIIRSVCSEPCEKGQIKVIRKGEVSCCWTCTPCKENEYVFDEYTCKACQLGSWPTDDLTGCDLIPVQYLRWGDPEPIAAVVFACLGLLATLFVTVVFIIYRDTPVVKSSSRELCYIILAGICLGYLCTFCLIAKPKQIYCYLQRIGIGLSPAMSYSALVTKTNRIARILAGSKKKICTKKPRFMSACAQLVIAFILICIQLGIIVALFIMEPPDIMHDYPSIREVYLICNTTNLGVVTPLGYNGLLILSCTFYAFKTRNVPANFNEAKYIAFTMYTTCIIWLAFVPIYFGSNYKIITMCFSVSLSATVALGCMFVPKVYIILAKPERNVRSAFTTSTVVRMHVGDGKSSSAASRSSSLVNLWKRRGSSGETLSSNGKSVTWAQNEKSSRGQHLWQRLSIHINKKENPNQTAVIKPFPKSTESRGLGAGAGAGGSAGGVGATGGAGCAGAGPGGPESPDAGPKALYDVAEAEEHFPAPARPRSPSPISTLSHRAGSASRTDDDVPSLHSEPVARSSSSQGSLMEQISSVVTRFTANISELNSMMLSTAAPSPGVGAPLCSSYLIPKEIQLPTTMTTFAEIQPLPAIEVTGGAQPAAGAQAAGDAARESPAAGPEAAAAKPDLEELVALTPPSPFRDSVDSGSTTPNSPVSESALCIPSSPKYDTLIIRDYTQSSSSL

Sequence of mGlu1a (Q13255 19-1194): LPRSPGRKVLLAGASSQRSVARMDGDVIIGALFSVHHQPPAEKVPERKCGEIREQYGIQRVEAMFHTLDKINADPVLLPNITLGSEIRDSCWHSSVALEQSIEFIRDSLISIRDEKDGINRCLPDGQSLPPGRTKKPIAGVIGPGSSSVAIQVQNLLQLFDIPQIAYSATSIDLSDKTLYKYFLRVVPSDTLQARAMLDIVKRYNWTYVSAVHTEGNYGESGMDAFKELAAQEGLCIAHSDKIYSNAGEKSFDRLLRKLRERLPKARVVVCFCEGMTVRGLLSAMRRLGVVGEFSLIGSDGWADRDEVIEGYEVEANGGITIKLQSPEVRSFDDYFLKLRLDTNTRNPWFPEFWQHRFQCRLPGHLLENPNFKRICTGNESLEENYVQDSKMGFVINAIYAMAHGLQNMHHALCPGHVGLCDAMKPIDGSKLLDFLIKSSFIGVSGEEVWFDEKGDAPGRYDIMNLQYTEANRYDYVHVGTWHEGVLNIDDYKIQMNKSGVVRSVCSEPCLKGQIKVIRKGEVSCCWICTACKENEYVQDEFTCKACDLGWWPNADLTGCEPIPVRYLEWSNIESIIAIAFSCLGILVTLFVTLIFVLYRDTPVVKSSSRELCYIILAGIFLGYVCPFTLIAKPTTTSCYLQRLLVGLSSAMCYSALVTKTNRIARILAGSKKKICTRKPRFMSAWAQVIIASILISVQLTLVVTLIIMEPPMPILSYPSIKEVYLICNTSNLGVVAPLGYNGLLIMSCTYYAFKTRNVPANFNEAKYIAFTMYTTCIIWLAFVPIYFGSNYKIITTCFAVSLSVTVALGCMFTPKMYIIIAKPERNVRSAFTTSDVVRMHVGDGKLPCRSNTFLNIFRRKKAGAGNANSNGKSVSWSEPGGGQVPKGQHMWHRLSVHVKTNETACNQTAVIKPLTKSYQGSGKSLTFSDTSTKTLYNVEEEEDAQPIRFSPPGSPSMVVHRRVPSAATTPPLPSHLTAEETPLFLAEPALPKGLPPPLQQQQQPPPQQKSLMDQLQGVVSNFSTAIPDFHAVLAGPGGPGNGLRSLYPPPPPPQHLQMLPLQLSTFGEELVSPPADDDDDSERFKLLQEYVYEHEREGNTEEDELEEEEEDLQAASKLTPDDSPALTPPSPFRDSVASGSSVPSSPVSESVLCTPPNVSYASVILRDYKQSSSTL

Structure (SMILES): N[C@@]1(C(=O)O)CS(=O)(=O)[C@H]2[C@H](C(=O)O)[C@H]21 [LY-404039, reference compound]
- # protected/# tested ([1]; 5 mg/kg s.c.): 1/16
- # protected/# tested ([1]; 10 mg/kg s.c.): 5/8
- # protected/# tested ([1]; 20 mg/kg s.c.): 6/8
- # protected/# tested ([1]; 40 mg/kg s.c.): 8/8
- ED50 ([1]; Mus musculus, sc, at TPE, read-out: ED50 (95% CI) 32 mA): 10.2 mg/kg
- activity in the 6 Hz 32 mA test ([1]; result in words): activity in both 6 Hz tests was seen
- ED50 (95% CI) 32 mA ([1]; s.c., at TPE): ED50 (95% CI): 10.9 mg/kg (7.8 to 15.9)
- activity when administered alone ([2]; 5 mg/kg s.c.): ^bLY404039 (s.c.) 5 mg/kg tested in combination with LEV (i.p.); LY404039 5 mg/kg was not active when administered alone.
- responders at 5 mg/kg ([2]; Mus musculus, sc, 0.5 h, 5 mg/kg s.c., 0.5 h, read-out: # protected/# tested): 0%
- responders at 10 mg/kg ([2]; Mus musculus, sc, 0.5 h, 10 mg/kg s.c., 0.5 h, read-out: # protected/# tested (converted)): 37.5%
- responders at 20 mg/kg ([2]; Mus musculus, sc, 0.5 h, 20 mg/kg s.c., 0.5 h, read-out: # protected/# tested (converted)): 87.5%
- responders at 40 mg/kg ([2]; Mus musculus, sc, 0.5 h, 40 mg/kg s.c., 0.5 h, read-out: # protected/# tested (converted)): 87.5%
- ED50 ([2]; Mus musculus, sc, at TPE, compound alone, read-out: ED50 (95% CI) 44 mA): 14.1 mg/kg
- activity in the 6 Hz 44 mA test ([2]; result in words): activity in both 6 Hz tests was seen
- pharmacodynamic interaction with LEV in the 6 Hz model ([2]; result in words): synergy was seen
- # rotarod motor impairment/# tested ([3]; 5 mg/kg s.c., 32 mA group): 1/16
- # rotarod motor impairment/# tested ([3]; 5 mg/kg s.c., 44 mA group): 0/16
- # rotarod motor impairment/# tested ([3]; 10 mg/kg s.c., 32 mA group): 0/8
- # rotarod motor impairment/# tested ([3]; 10 mg/kg s.c., 44 mA group): 1/8
- # rotarod motor impairment/# tested ([3]; 20 mg/kg s.c., 32 mA group): 1/8
- # rotarod motor impairment/# tested ([3]; 20 mg/kg s.c., 44 mA group): 1/8
- # rotarod motor impairment/# tested ([3]; 40 mg/kg s.c., 32 mA group): 1/8
- # rotarod motor impairment/# tested ([3]; 40 mg/kg s.c., 44 mA group): 2/8
- mice with impairment out of total ([3]; 40 mg/kg s.c., 32 mA and 44 mA groups combined): ^a40 mg/kg-3 out of 16 total (32 mA and 44 mA combined) with impairment.
- TD50 at 0.5 h ([3]; mouse, in vivo, sc, rotarod): > 40 mg/kg
- Seizure score (dose) Corneal kindling [4]: 3.1
- activity at mGlu1a [5]: no activity
- activity at mGlu5a [6]: no activity
